Here are results for 1 compound from patent US12723128B2, “Aromatic diol compounds, diepoxide compounds, polymers prepared from such compounds, and methods for making the same” (SWIMC LLC, priority 2020, dated 2026).

This data set in a line: Stability by differential scanning calorimetry (DSC). Conditions: FIG. 7. It counts as physicochemical. Here is the method: In Example 9, the stability of the diglycidyl ether of Example 4B (cyclohexanone 2,6 methylene bis (2-furan, 5-methanol glycidyl ether)) was tested using differential scanning calorimetry (“DSC”).
On the technique in general: In DSC, transitions show as peaks or steps in heat flow.

As to `O=C1/C(=C/c2ccc(COCC3CO3)o2)CCC/C1=C\c1ccc(COCC2CO2)o1` (stereo not shown) [Example 4B, cyclohexanone 2,6 methylene bis (2-furan, 5-methanol glycidyl ether)], the “Stability (stable up to)” value was “up to 180 °C”.
